Test results as given in patent US20260130395A1, “Water Dispersible Botanical Compositions” (Aquila Black Limited, priority 2021, published 2026).

Legend:
[1] = Stability of cannabinoid entourage and Vitamin E components of the powder concentrate by LCMSMS; type: physicochemical; details: powder stored at 21-25° C.
Experimental: At each time period, 0.05 g of powder was dissolved in 10 ml-15 of ethanol, diluted to fall within the analytical range, and injected into the LCMSMS for analysis.

[2] = Stability of cannabinoid compounds and Vitamin E components in Beverage 1 (AB White) by LCMSMS; type: physicochemical; details: AB White stored at 8° C.

CCCCCc1cc(O)c(C/C=C(\C)CCC=C(C)C)c(O)c1 [CBG, cannabigerol]
Stability of Plant-Derived Cannabinoid Compounds in Powder Concentrate ([1]; 0 days): 1.1 mg/g powder | Stability of Plant-Derived Cannabinoid Compounds in Powder Concentrate ([1]; 1 days): 1.07 mg/g powder | Stability of Plant-Derived Cannabinoid Compounds in Powder Concentrate ([1]; 2 days): 1.08 mg/g powder | Stability of Plant-Derived Cannabinoid Compounds in Powder Concentrate ([1]; 3 days): 1.09 mg/g powder | Stability of Plant-Derived Cannabinoid Compounds in Powder Concentrate ([1]; 5 days): 1.11 mg/g powder | Stability of Plant-Derived Cannabinoid Compounds in Powder Concentrate ([1]; 8 days): 1.07 mg/g powder | Stability of Plant-Derived Cannabinoid Compounds in Powder Concentrate ([1]; 9 days): 1.09 mg/g powder | Stability of Plant-Derived Cannabinoid Compounds in Powder Concentrate ([1]; 10 days): 1.08 mg/g powder | Stability of Plant-Derived Cannabinoid Compounds in Powder Concentrate ([1]; 11 days): 1.14 mg/g powder | Stability of Plant-Derived Cannabinoid Compounds in Powder Concentrate ([1]; 12 days): 1.10 mg/g powder | Stability of Plant-Derived Cannabinoid Compounds in Powder Concentrate ([1]; 15 days): 1.08 mg/g powder | Stability of Plant-Derived Cannabinoid Compounds in Powder Concentrate ([1]; 16 days): 1.06 mg/g powder | Stability of Plant-Derived Cannabinoid Compounds in Powder Concentrate ([1]; 17 days): 1.06 mg/g powder | Stability of Plant-Derived Cannabinoid Compounds in Powder Concentrate ([1]; 18 days): 1.13 mg/g powder | Stability of Plant-Derived Cannabinoid Compounds in Powder Concentrate ([1]; 19 days): 1.14 mg/g powder | Stability of Plant-Derived Cannabinoid Compounds in Powder Concentrate ([1]; 22 days): 1.12 mg/g powder | Stability of Plant-Derived Cannabinoid Compounds in Powder Concentrate ([1]; 23 days): 1.13 mg/g powder | Stability of Plant-Derived Cannabinoid Compounds in Powder Concentrate ([1]; 24 days): 1.09 mg/g powder | Stability of Plant-Derived Cannabinoid Compounds in Powder Concentrate ([1]; 25 days): 1.13 mg/g powder | Stability of Plant-Derived Cannabinoid Compounds in Powder Concentrate ([1]; 26 days): 1.14 mg/g powder | Stability of Plant-Derived Cannabinoid Compounds in Powder Concentrate ([1]; 29 days): 1.10 mg/g powder | Stability of Plant-Derived Cannabinoid Compounds in Powder Concentrate ([1]; 30 days): 1.07 mg/g powder | Stability of Plant-Derived Cannabinoid Compounds in Powder Concentrate ([1]; 60 days): 1.11 mg/g powder | Stability of Plant-Derived Cannabinoid Compounds in Powder Concentrate ([1]; 90 days): 1.13 mg/g powder | Stability of Plant-Derived Cannabinoid Compounds in Powder Concentrate ([1]; 120 days): 1.09 mg/g powder | Stability of Plant-Derived Cannabinoid Compounds in Powder Concentrate ([1]; 150 days): 1.11 mg/g powder | Stability of Plant-Derived Cannabinoid Compounds in Powder Concentrate ([1]; 180 days): 1.07 mg/g powder | Stability of Plant-Derived Cannabinoid Compounds in Powder Concentrate ([1]; 210 days): 1.06 mg/g powder | Stability of Plant-Derived Cannabinoid Compounds in Powder Concentrate ([1]; 240 days): 1.12 mg/g powder | Stability of Plant-Derived Cannabinoid Compounds in Powder Concentrate ([1]; 270 days): 1.15 mg/g powder | Stability of Plant-Derived Cannabinoid Compounds in Powder Concentrate ([1]; 300 days): 1.09 mg/g powder | Stability of Plant-Derived Cannabinoid Compounds in Powder Concentrate ([1]; 330 days): 1.10 mg/g powder | Stability of Plant-Derived Cannabinoid Compounds in Powder Concentrate ([1]; 360 days): 1.09 mg/g powder | Stability of Plant-Derived Cannabinoid Compounds in Powder Concentrate ([1]; 390 days): 1.14 mg/g powder | Stability of Plant-Derived Cannabinoid Compounds in Powder Concentrate ([1]; 420 days): 1.11 mg/g powder | Stability of Plant-Derived Cannabinoid Compounds in Powder Concentrate ([1]; 450 days): 1.06 mg/g powder | Stability of Plant-Derived Cannabinoid Compounds in Powder Concentrate ([1]; 480 days): 1.12 mg/g powder | Stability of Plant-Derived Cannabinoid Compounds in Powder Concentrate ([1]; 510 days): 1.07 mg/g powder | Stability of Plant-Derived Cannabinoid Compounds in Powder Concentrate ([1]; 540 days): 1.07 mg/g powder | Stability of Plant-Derived Cannabinoid Compounds in Powder Concentrate ([1]; 570 days): 1.06 mg/g powder | Stability of Plant-Derived Cannabinoid Compounds in AB White, 8° C. ([2]; 0 days): 4.87 µg/mL | Stability of Plant-Derived Cannabinoid Compounds in AB White, 8° C. ([2]; 1 days): 4.74 µg/mL | Stability of Plant-Derived Cannabinoid Compounds in AB White, 8° C. ([2]; 2 days): 4.91 µg/mL | Stability of Plant-Derived Cannabinoid Compounds in AB White, 8° C. ([2]; 3 days): 4.74 µg/mL | Stability of Plant-Derived Cannabinoid Compounds in AB White, 8° C. ([2]; 5 days): 4.88 µg/mL | Stability of Plant-Derived Cannabinoid Compounds in AB White, 8° C. ([2]; 8 days): 4.86 µg/mL | Stability of Plant-Derived Cannabinoid Compounds in AB White, 8° C. ([2]; 9 days): 4.89 µg/mL | Stability of Plant-Derived Cannabinoid Compounds in AB White, 8° C. ([2]; 10 days): 4.77 µg/mL | Stability of Plant-Derived Cannabinoid Compounds in AB White, 8° C. ([2]; 11 days): 4.87 µg/mL | Stability of Plant-Derived Cannabinoid Compounds in AB White, 8° C. ([2]; 12 days): 4.87 µg/mL | Stability of Plant-Derived Cannabinoid Compounds in AB White, 8° C. ([2]; 15 days): 4.81 µg/mL | Stability of Plant-Derived Cannabinoid Compounds in AB White, 8° C. ([2]; 16 days): 4.84 µg/mL | Stability of Plant-Derived Cannabinoid Compounds in AB White, 8° C. ([2]; 17 days): 4.78 µg/mL | Stability of Plant-Derived Cannabinoid Compounds in AB White, 8° C. ([2]; 18 days): 4.81 µg/mL | Stability of Plant-Derived Cannabinoid Compounds in AB White, 8° C. ([2]; 19 days): 4.83 µg/mL | Stability of Plant-Derived Cannabinoid Compounds in AB White, 8° C. ([2]; 22 days): 4.75 µg/mL | Stability of Plant-Derived Cannabinoid Compounds in AB White, 8° C. ([2]; 23 days): 4.89 µg/mL | Stability of Plant-Derived Cannabinoid Compounds in AB White, 8° C. ([2]; 24 days): 4.83 µg/mL | Stability of Plant-Derived Cannabinoid Compounds in AB White, 8° C. ([2]; 25 days): 4.89 µg/mL | Stability of Plant-Derived Cannabinoid Compounds in AB White, 8° C. ([2]; 26 days): 4.77 µg/mL
